How the values were obtained:
Human MMP-9 = target: T1, Human MMP-9 (Homo sapiens, UniProt P14780); test: OPN cleavage assay with MMP-9 and MMP inhibitors; assay type: biochemical; details: Western blot after 1-hour digestion at 37° C.; EDTA 10 mM, MMP-9 inhibitor I 2 μM, TIMP-1 0.1 μM
T1 construct: purchased Calbiochem, CA
Protocol: OPN cleavage assays were performed as follows. Human MMP-9 (Calbiochem, CA) was incubated at 37° C. for 3 hours with recombinant human OPN (R&D systems, MN) at an optimized ratio (5:1 substrate:enzyme) in a buffered solution (200 mM NaCl, 5 mM CaCl, 50 mM Tris-C1, pH 7.5). Digested OPN was analyzed by 16% tris-glycine SDS-PAGE followed by colloidal coomassie blue staining (SimplyBlue™, Invitrogen, CA). Separate cleavage reactions (2 μg OPN) were transferred to PDVF membranes for amino-end terminal microsequencing.
For western blot analysis, MMP-9-digested OPN samples and whole cell lysates (50 μg) were transferred to 0.22 um PVDF membranes and probed with a polyclonal antibody generated to a 14-residue peptide just downstream of the residue 169 thrombin cleavage site ([sequence]; amino acids 169-183 of SEQ ID NO: 2) (Abcam, MA). HEK-293 cell lysates were probed with an anti-FLAG antibody (Sigma, Mo.). Immuno-reactive proteins were detected by chemilluminescence (ECL, GE Healthcare Life Sciences, NJ).

SMMC-7721 SC2 cells = test: Matrigel invasion assay with short overlapping peptides of OPN-5kD; assay type: cell-based, human; details: 36 hours; for effect on OPN-5kD induced invasion, separate addition: in conjunction with OPN-5kD, 1:1 molar, 2 μM each; for cellular invasion relative to media alone treated cells: peptide alone, 2 μM, p<0.05
Text: A 44 residue peptide corresponding to the OPN-5kD fragment (SEQ ID NO: 4), was synthesized and purified >97% by HPLC (EZBiolabs, IN). A series of short peptides spanning the region of residues 167-210 of OPN (SEQ ID NO: 2) were generated as follows. Eight small overlapping peptides spanning the OPN-5kD peptide were similarly synthesized to >75% purity (p1=[…], amino acids 167-176 of SEQ ID NO: 2; p2=[…], amino acids 172-181 of SEQ ID NO: 2; p3=[…], amino acids 177-186 of SEQ ID NO: 2; p4=[…], amino acids 182-191 of SEQ ID NO: 2; p5=[…], amino acids 187-196 of SEQ ID NO: 2; p6=[…], amino acids 192-201 of SEQ ID NO: 2; p7=[…], amino acids 197-206 of SEQ ID NO: 2; and p8=[…] amino acids 202-210 of SEQ ID NO: 2) (EZBiolabs, IN). The lyophilized peptides were resuspended in PBS and applied with cells to the upper wells of Matrigel invasion chambers at equal molar concentrations (2 μM). Invading cells were measured after 36 hours following calcein incorporation as described in the examples above.

SMMC-7721-SC2 cells [1] = test: Cellular adhesion with exogenous intact or MMP-9 cleaved OPN; assay type: cell-based, human; details: GRGDS peptide 400 μM; OPN 250 nM
Protocol: Cellular adhesion was measured using the following methods. SMMC-7721-SC2 cells were seeded into the wells of a 96-well fluorescent-read plate in serum-free media (6×10^4 cells/well) with human OPN (0-250 nM) with or without prior digestion by MMP-9. Media and MMP-9 alone treated cells were included as controls. A GRGDS blocking peptide (400 μM) was added to separate media control, intact OPN, and MMP-9 cleaved OPN (250 nM) conditions. Non-adherent cells were removed with a PBS wash (100 μl) after one hour and adherent cells were quantified by CyQuant GR dye incorporation (Molecular Probes, OR) and detection at EX485, EM530.

SMMC-7721-SC2 cells [2] = test: Adhesion of cells transfected with OPN expression constructs; assay type: cell-based, human; details: 30-60 minutes
Protocol: To determine the affect of OPN fragments on adhesion, the following methods were used. SMMC-7721-SC2 cells (1×10^6) were trypsinized (E-PET, Biosource, CA) and transfected with the four OPN expression constructs shown in FIG. 3A and empty vector DNA (5 μg) (50-60% efficiency) using optimized conditions (Nucleofection, AMAXA, MD) and plated to 6-well plates. After a 24-hour recovery period, the cells were trypsinized and seeded by equal numbers (6×10^4) into fluorescent-read 96-well plates in serum-free media. Non-adherent cells were removed with a PBS wash after 2-60 minutes and fluorescence was quantified at EX485, EM530.

SMMC-7721-SC2 cells [3] = test: Migration assay of cells transfected with OPN constructs; assay type: cell-based, human; details: vector controls, 24, 36, 48 hours
Protocol: (§1) Migration and invasion assays were performed as follows. Transfected SMMC-7721-SC2 cells (transfected with 5 μg plasmid DNA) were allowed to recover in 5% serum containing media and were re-counted prior to dilution in serum-free media. Cells were seeded (5×10^4) into the upper chambers of Matrigel coated 8 um pore membranes (HTSTM Fluoroblok tumor invasion system, BD Biosciences, MA) or uncoated […] pore membranes (HTSTM Fluoroblok insert system, BD Biosciences, MA). Media containing serum (5%) was added to the lower chambers as a chemotactic agent. Blocking antibodies to either the integrin αVβ3 receptor (clone LM609, Chemicon, CA) or a common determinant of the CD44 receptors (clone A020, Calbiochem, CA) were added to the upper chambers (4 μg/ml) at the time of cell seeding. Migrated cells were labeled with calcein AM (Molecular Probes, OR) at 37° C. for 1 hour, and fluorescence was measured at 24, 36, and 48 hours (EX 490 nm, EM 530 nm).

SMMC-7721-SC2 cells [4] = test: Matrigel invasion assay (OPN constructs, blocking antibodies, OPN-5kD peptide); assay type: cell-based, human; details: 36 hours
Protocol: as §1
Cell invasion was measured as described in Example 4. Briefly, each of the OPN vectors shown in FIG. 3A (5 μg) were separately transfected into SMMC-7721 cells (1×10^6) using optimized conditions (Nucleofection, AMAXA). […] After 36 hours, the invaded cells were labeled with calcein at 37° C. for 1 hour and fluorescence was measured (EX485, EM530).
To determine the effect of blocking antibodies to the integrin aV133 and CD44 receptors on the affect of invasion of HCC cells expression OPN full-length or OPN-5 kD, integrin αVβ3 (Chemicon, CA) or CD44 (Calbiochem, CA) blocking antibodies were added (4 μg/ml) to cells transiently expressing OPN full-length and OPN-5kD. Invading cells were measured at 36 hours following calcein incorporation as described above.
To determine the effect of varying concentrations of the OPN-5kD peptide on invasion of HCC cells, SMMC-7721 cells were exposed to increasing concentrations of the OPN-5kD peptide (0.4 μM, 1 μM and 2 μM) and invading cells were measured after 36 hours following calcein incorporation as described above. […]

T1 sequence (P14780 94-707): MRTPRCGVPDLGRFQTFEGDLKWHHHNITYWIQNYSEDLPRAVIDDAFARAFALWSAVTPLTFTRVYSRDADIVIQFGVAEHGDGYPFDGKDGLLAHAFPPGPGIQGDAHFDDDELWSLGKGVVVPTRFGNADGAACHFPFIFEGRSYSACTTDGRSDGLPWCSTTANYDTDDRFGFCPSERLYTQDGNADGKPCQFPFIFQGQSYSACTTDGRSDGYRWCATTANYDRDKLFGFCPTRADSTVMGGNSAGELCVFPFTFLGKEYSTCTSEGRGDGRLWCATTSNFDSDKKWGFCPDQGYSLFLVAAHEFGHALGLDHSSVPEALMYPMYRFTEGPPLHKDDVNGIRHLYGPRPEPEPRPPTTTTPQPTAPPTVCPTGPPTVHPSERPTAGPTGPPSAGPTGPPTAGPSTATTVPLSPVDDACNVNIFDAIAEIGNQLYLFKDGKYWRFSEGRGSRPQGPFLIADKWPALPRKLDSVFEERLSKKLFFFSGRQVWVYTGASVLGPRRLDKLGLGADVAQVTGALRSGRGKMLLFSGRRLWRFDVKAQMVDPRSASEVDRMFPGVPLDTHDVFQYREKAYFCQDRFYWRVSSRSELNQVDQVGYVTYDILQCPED

## O=C(O)CN(CCN(CC(=O)O)CC(=O)O)CC(=O)O [EDTA]
Human MMP-9
  inhibition of MMP-9 cleavage of OPN (OPN-5kD fragment detection): partially inhibited

## ELNGAYKAIP (listed as Homo sapiens) [p7]
SMMC-7721 SC2 cells
  effect on OPN-5kD induced invasion, separate addition: partial reduction in invasion
  cellular invasion relative to media alone treated cells: suppressive effect

## GRGDS [GRGDS peptide]
SMMC-7721-SC2 cells [1]
  blocking of intact and cleaved OPN-mediated adhesion: blocked both intact and cleaved OPN-mediated adhesion

## HMESEELNGA (listed as Homo sapiens) [p6]
SMMC-7721 SC2 cells
  effect on OPN-5kD induced invasion, separate addition: partial reduction in invasion
  cellular invasion relative to media alone treated cells: suppressive effect

## KKFRRPDIQY (listed as Homo sapiens) [p2]
SMMC-7721 SC2 cells
  effect on OPN-5kD induced invasion, separate addition: insignificant effect

## OPN-5kD: MMP-9 cleavage fragment of OPN, residues 167-210; expressed from FLAG-tagged construct
SMMC-7721-SC2 cells [2]
  adhesion after transient over-expression relative to controls, later time points: decreased adhesion
SMMC-7721-SC2 cells [3]
  SMMC-7721-SC2 migration relative to controls: decreased migration
SMMC-7721-SC2 cells [4]; transfected cells, p=0.001
  increase in cellular invasion: > 2 fold

## OPN-24 kD: OPN fragment residues 211-314; expressed from FLAG-tagged construct
SMMC-7721-SC2 cells [2]
  adhesion after transient over-expression relative to controls, later time points: decreased adhesion
SMMC-7721-SC2 cells [3]
  SMMC-7721-SC2 migration relative to controls: decreased migration
SMMC-7721-SC2 cells [4]
  cellular invasion compared to vector transfected cells: No significant difference

## PDIQYPDATD (listed as Homo sapiens) [p3]
SMMC-7721 SC2 cells
  effect on OPN-5kD induced invasion, separate addition: partial reduction in invasion
  cellular invasion relative to media alone treated cells: suppressive effect

## full-length OPN: wild-type osteopontin protein (OPN-a) expressed from FLAG-tagged construct
SMMC-7721-SC2 cells [2]
  adhesion after transient over-expression relative to controls, later time points: increased adhesion
SMMC-7721-SC2 cells [3]
  SMMC-7721-SC2 migration relative to controls: induced SMMC-7721-SC2 migration
SMMC-7721-SC2 cells [4]
  cellular invasion compared to vector transfected cells: slightly increased invasion
